Laboratory results: article PMC9103764, “Pilot Study on Acute Effects of Pharmacological Intraperitoneal L-Homoarginine on Homeostasis of Lysine and Other Amino Acids in a Rat Model of Isoprenaline-Induced Takotsubo Cardiomyopathy” (International Journal of Molecular Sciences, 2022)

How the values were obtained:
[1] = system: L-Arginine:glycine amidinotransferase (AGAT); test: Equilibrium constants of the AGAT-catalyzed reactions calculated from free amino acid concentrations in rat organs; type: in vivo, Sprague-Dawley rats
[2] = parameters: method as in PMID 28710553; conditions: single i.p. hArg 20, 220, 440 mg/kg; cited from earlier work
[3] = parameters: method as in PMID 31776762; conditions: decarboxylation product of hArg; rat TTC model; cited from earlier work
[4] = oral hArg 125 mg/day, cited from earlier work
[5] = parameters: method as in PMID 24004504; conditions: cited from earlier work
arginase = system: arginase; parameters: method as in PMID 31028716; conditions: cited from earlier work
polyamine catabolism = test: Putrescine:spermidine (PUT/SPD) molar ratio in organ homogenates; conditions: R17; hArg 440 mg/kg i.p.; 14 min; without isoprenaline
[6] = Free amino acids by GC-MS in organ homogenates of rats given i.p. hArg (isoprenaline-induced takotsubo model)
[7] = parameters: method as in PMID 9127274; conditions: rat; cited from earlier work
[8] = R1, hArg 440 mg/kg i.p., sacrifice 32 min, ISO 50 mg/kg i.p. at 15 min
[9] = R2, hArg 20 mg/kg i.p., sacrifice 64 min, ISO 50 mg/kg i.p. at 15 min
[10] = R3, hArg 20 mg/kg i.p., sacrifice 28 min, ISO 50 mg/kg i.p. at 15 min
[11] = R4, hArg 440 mg/kg i.p., sacrifice 87 min, ISO 50 mg/kg i.p. at 15 min
[12] = R13, hArg 20 mg/kg i.p., sacrifice 126 min, ISO 50 mg/kg i.p. at 15 min
[13] = R14, hArg 220 mg/kg i.p., sacrifice 108 min, ISO 50 mg/kg i.p. at 15 min
[14] = R17, hArg 440 mg/kg i.p., sacrifice 14 min, no ISO
[15] = R18, hArg 20 mg/kg i.p., sacrifice 114 min, ISO 50 mg/kg i.p. at 15 min
[16] = R19, hArg 220 mg/kg i.p., sacrifice 98 min, ISO 50 mg/kg i.p. at 15 min
[17] = hArg treatment, mice, dose-dependent

N=C(N)NCCCC[C@H](N)C(=O)O [hArg, L-homoarginine]
KhArg/KGAA ratio, kidney [1, 8]: 0.13
KhArg/KGAA ratio, lung [1, 8]: 6.8
equilibrium constant KGAA, kidney [1, 8]: 1.83
equilibrium constant KGAA, lung [1, 8]: 0.06
equilibrium constant KhArg, kidney [1, 8]: 0.24
equilibrium constant KhArg, lung [1, 8]: 0.40
KhArg/KGAA ratio, heart [1, 9]: 0.002
KhArg/KGAA ratio, kidney [1, 9]: 0.23
KhArg/KGAA ratio, liver [1, 9]: 0.19
KhArg/KGAA ratio, lung [1, 9]: 0.13
equilibrium constant KGAA, heart [1, 9]: 2.26
equilibrium constant KGAA, kidney [1, 9]: 0.31
equilibrium constant KGAA, liver [1, 9]: 0.09
equilibrium constant KGAA, lung [1, 9]: 0.023
equilibrium constant KhArg, heart [1, 9]: 0.005
equilibrium constant KhArg, kidney [1, 9]: 0.07
equilibrium constant KhArg, liver [1, 9]: 0.02
equilibrium constant KhArg, lung [1, 9]: 0.003
KhArg/KGAA ratio, heart [1, 10]: 0.001
KhArg/KGAA ratio, kidney [1, 10]: 0.16
KhArg/KGAA ratio, liver [1, 10]: 0.35
KhArg/KGAA ratio, lung [1, 10]: 0.06
equilibrium constant KGAA, heart [1, 10]: 1.39
equilibrium constant KGAA, kidney [1, 10]: 0.37
equilibrium constant KGAA, liver [1, 10]: 2.11
equilibrium constant KGAA, lung [1, 10]: 5.34
equilibrium constant KhArg, heart [1, 10]: 0.002
equilibrium constant KhArg, kidney [1, 10]: 0.06
equilibrium constant KhArg, liver [1, 10]: 0.74
equilibrium constant KhArg, lung [1, 10]: 0.31
KhArg/KGAA ratio, kidney [1, 11]: 2.18
KhArg/KGAA ratio, liver [1, 11]: 1.61
KhArg/KGAA ratio, lung [1, 11]: 2.61
equilibrium constant KGAA, kidney [1, 11]: 0.53
equilibrium constant KGAA, liver [1, 11]: 12.6
equilibrium constant KGAA, lung [1, 11]: 0.13
equilibrium constant KhArg, kidney [1, 11]: 1.16
equilibrium constant KhArg, liver [1, 11]: 20.3
equilibrium constant KhArg, lung [1, 11]: 0.34
KhArg/KGAA ratio, heart [1, 12]: 0.43
KhArg/KGAA ratio, kidney [1, 12]: 0.006
KhArg/KGAA ratio, liver [1, 12]: 0.31
KhArg/KGAA ratio, lung [1, 12]: 0.27
equilibrium constant KGAA, heart [1, 12]: 0.23
equilibrium constant KGAA, kidney [1, 12]: 1.14
equilibrium constant KGAA, liver [1, 12]: 2.45
equilibrium constant KGAA, lung [1, 12]: 0.07
equilibrium constant KhArg, heart [1, 12]: 0.10
equilibrium constant KhArg, kidney [1, 12]: 0.007
equilibrium constant KhArg, liver [1, 12]: 0.76
equilibrium constant KhArg, lung [1, 12]: 0.02
KhArg/KGAA ratio, heart [1, 13]: 1.9
KhArg/KGAA ratio, kidney [1, 13]: 0.05
KhArg/KGAA ratio, liver [1, 13]: 4.8
KhArg/KGAA ratio, lung [1, 13]: 1.13
equilibrium constant KGAA, heart [1, 13]: 0.20
equilibrium constant KGAA, kidney [1, 13]: 1.32
equilibrium constant KGAA, liver [1, 13]: 1.07
equilibrium constant KGAA, lung [1, 13]: 0.03
equilibrium constant KhArg, heart [1, 13]: 0.38
equilibrium constant KhArg, kidney [1, 13]: 0.06
equilibrium constant KhArg, liver [1, 13]: 5.16
equilibrium constant KhArg, lung [1, 13]: 0.03
KhArg/KGAA ratio, heart [1, 14]: 3.8
KhArg/KGAA ratio, kidney [1, 14]: 0.07
KhArg/KGAA ratio, liver [1, 14]: 6.7
KhArg/KGAA ratio, lung [1, 14]: 4.0
equilibrium constant KGAA, heart [1, 14]: 0.09
equilibrium constant KGAA, kidney [1, 14]: 1.64
equilibrium constant KGAA, liver [1, 14]: 0.80
equilibrium constant KGAA, lung [1, 14]: 0.04
equilibrium constant KhArg, heart [1, 14]: 0.33
equilibrium constant KhArg, kidney [1, 14]: 0.12
equilibrium constant KhArg, liver [1, 14]: 5.38
equilibrium constant KhArg, lung [1, 14]: 0.17
KhArg/KGAA ratio, heart [1, 15]: 0.36
KhArg/KGAA ratio, kidney [1, 15]: 0.005
KhArg/KGAA ratio, liver [1, 15]: 0.12
KhArg/KGAA ratio, lung [1, 15]: 0.12
equilibrium constant KGAA, heart [1, 15]: 0.31
equilibrium constant KGAA, kidney [1, 15]: 1.94
equilibrium constant KGAA, liver [1, 15]: 4.20
equilibrium constant KGAA, lung [1, 15]: 0.21
equilibrium constant KhArg, heart [1, 15]: 0.11
equilibrium constant KhArg, kidney [1, 15]: 0.009
equilibrium constant KhArg, liver [1, 15]: 0.50
equilibrium constant KhArg, lung [1, 15]: 0.03
KhArg/KGAA ratio, kidney [1, 16]: 1.8
KhArg/KGAA ratio, liver [1, 16]: 2.0
equilibrium constant KGAA, kidney [1, 16]: 0.35
equilibrium constant KGAA, liver [1, 16]: 2.59
equilibrium constant KhArg, kidney [1, 16]: 0.62
equilibrium constant KhArg, liver [1, 16]: 5.26
equilibrium constant KhArg, lung [1, 16]: 0.20
effect on citrullination (proteinic Cit) in organs (all organs, data not shown): independent of the hArg dose
incorporation of pharmacological hArg into tissue proteins (rat, in vivo): no incorporation of pharmacological hArg into tissue proteins
changes in nitrite and nitrate [2]: marginal
tissue homoagmatine (hAgm) concentration, median [interquartile range] [3]: 34.8 [4.6–270] nM
effects on cognition ([4]; healthy humans): did not reveal any appreciable effects on cognition
increase of plasma Lys concentration compared to placebo ([4]; healthy young volunteers): about 8%
pulse wave velocity, augmentation index, flow-mediated vasodilatation, corticospinal and cortical excitability ([4]; healthy young volunteers): without changes
infarct size [5, 17]: decreased infarct sizes
neurological scores [5, 17]: improved neurological scores
hArg plasma concentration ([5]; oral hArg, C57BL6 mice, versus vehicle-treated): 0.20 ± 0.02 µM
substrate quality for arginase (arginase): poor substrate
PUT/SPD molar ratio, heart (polyamine catabolism): 1.5
PUT/SPD molar ratio, kidney (polyamine catabolism): 0.86
PUT/SPD molar ratio, liver (polyamine catabolism): 0.12
PUT/SPD molar ratio, lung (polyamine catabolism): 0.83
free Arg concentration, kidney homogenate [6, 8]: 365 µM
free Arg concentration, lung homogenate [6, 8]: 102 µM
free Lys concentration, kidney homogenate [6, 8]: 646 µM
free Lys concentration, lung homogenate [6, 8]: 229 µM
free Arg concentration, heart homogenate [6, 9]: 384 µM
free Arg concentration, kidney homogenate [6, 9]: 37.4 µM
free Arg concentration, liver homogenate [6, 9]: 124 µM
free Arg concentration, lung homogenate [6, 9]: 210 µM
free Lys concentration, heart homogenate [6, 9]: 644 µM
free Lys concentration, kidney homogenate [6, 9]: 96 µM
free Lys concentration, liver homogenate [6, 9]: 241 µM
free Lys concentration, lung homogenate [6, 9]: 306 µM
free Arg concentration, heart homogenate [6, 10]: 575 µM
free Arg concentration, kidney homogenate [6, 10]: 60.7 µM
free Arg concentration, liver homogenate [6, 10]: 14.3 µM
free Arg concentration, lung homogenate [6, 10]: 7.34 µM
free Lys concentration, heart homogenate [6, 10]: 834 µM
free Lys concentration, kidney homogenate [6, 10]: 173 µM
free Lys concentration, liver homogenate [6, 10]: 392 µM
free Lys concentration, lung homogenate [6, 10]: 191 µM
free Arg concentration, kidney homogenate [6, 11]: 73.8 µM
free Arg concentration, liver homogenate [6, 11]: 10.3 µM
free Arg concentration, lung homogenate [6, 11]: 185 µM
free Lys concentration, kidney homogenate [6, 11]: 187 µM
free Lys concentration, liver homogenate [6, 11]: 714 µM
free Lys concentration, lung homogenate [6, 11]: 441 µM
free Arg concentration, heart homogenate [6, 12]: 75.4 µM
free Arg concentration, kidney homogenate [6, 12]: 370 µM
free Arg concentration, liver homogenate [6, 12]: 21.2 µM
free Arg concentration, lung homogenate [6, 12]: 261 µM
free Lys concentration, heart homogenate [6, 12]: 151 µM
free Lys concentration, kidney homogenate [6, 12]: 602 µM
free Lys concentration, liver homogenate [6, 12]: 492 µM
free Lys concentration, lung homogenate [6, 12]: 471 µM
free Arg concentration, heart homogenate [6, 13]: 91.2 µM
free Arg concentration, kidney homogenate [6, 13]: 733 µM
free Arg concentration, liver homogenate [6, 13]: 15.9 µM
free Arg concentration, lung homogenate [6, 13]: 171 µM
free Lys concentration, heart homogenate [6, 13]: 154 µM
free Lys concentration, kidney homogenate [6, 13]: 1101 µM
free Lys concentration, liver homogenate [6, 13]: 391 µM
free Lys concentration, lung homogenate [6, 13]: 245 µM
free Arg concentration, heart homogenate [6, 14]: 92 µM
free Arg concentration, kidney homogenate [6, 14]: 767 µM
free Arg concentration, liver homogenate [6, 14]: 29.8 µM
free Arg concentration, lung homogenate [6, 14]: 230 µM
free Lys concentration, heart homogenate [6, 14]: 140 µM
free Lys concentration, kidney homogenate [6, 14]: 1138 µM
free Lys concentration, liver homogenate [6, 14]: 497 µM
free Lys concentration, lung homogenate [6, 14]: 386 µM
free Arg concentration, heart homogenate [6, 15]: 51.3 µM
free Arg concentration, kidney homogenate [6, 15]: 262 µM
free Arg concentration, liver homogenate [6, 15]: 10.1 µM
free Arg concentration, lung homogenate [6, 15]: 136 µM
free Lys concentration, heart homogenate [6, 15]: 153 µM
free Lys concentration, kidney homogenate [6, 15]: 503 µM
free Lys concentration, liver homogenate [6, 15]: 328 µM
free Lys concentration, lung homogenate [6, 15]: 391 µM
free Arg concentration, kidney homogenate [6, 16]: 56.3 µM
free Arg concentration, liver homogenate [6, 16]: 15 µM
free Arg concentration, lung homogenate [6, 16]: 233 µM
free Lys concentration, kidney homogenate [6, 16]: 145 µM
free Lys concentration, liver homogenate [6, 16]: 451 µM
free Lys concentration, lung homogenate [6, 16]: 169 µM
increase in free GAA in the kidney ([6]; after i.p. hArg, Figure 5): ~100 fold
effect on global arginine bioavailability ratio (GABR) ([6]; all organs, data not shown): independent of the hArg dose

CC(C)NCC(O)c1ccc(O)c(O)c1 (centres unmarked) [isoprenaline]
elimination half-life [7]: 10 min
